Tested on: lactobacillus
Test: Liquid culture of lactobacillus
Format: cell-based

For `CC(=O)N[C@H]1C(O)O[C@H](CO)[C@@H](O)[C@@H]1O` (stereo partly drawn) [N-acetyl-D-glucosamine], the growth of lactobacillus was “could promote the growth of lactobacillus”.

— patent publication US7704976B2, “Use of N-acetyl-D-glucosamine for preparing medicines for urogenital tract infection's treatment and prevention” (Third Military Medical University, Chinese People's …, priority 2002, dated 2010)
